From patent publication US20220125803A1, “METHODS FOR THE TREATMENT OF PERIMENOPAUSE AND MENOPAUSE” (Praxis Precision Medicines, Inc., priority 2019, published 2022)

How the values were obtained:
[1] = test system: women that are perimenopausal with depression; assay: Open label trial, Hamilton Depression Rating Scale (HAM-D); format: in vivo, human; conditions: one patient
Procedure: (§1) The study is a two-week open label trial in women that are perimenopausal with depression during which patients were treated with an oral formulation of Compound 1 in adjunct to standard antidepressant treatment.
[…] Participants were administered daily doses of Compound 1 (up to 120 mg qPM, including 15 mg once a day, 20 mg once a day, 25 mg once a day, 30 mg once a day, 35 mg once a day, 40 mg once a day, 45 mg once a day, 50 mg once a day, 55 mg once a day, 60 mg once a day, 65 mg once a day, 70 mg once a day, 75 mg once a day, 80 mg once a day, 85 mg once a day, 90 mg once a day, 95 mg once a day, 100 mg once a day, 105 mg once a day, 110 mg once a day, 115 mg once a day and 120 mg once a day) for 14 days.
The Primary efficacy outcome was measured by the Hamilton Depression Rating Scale (HAM-D). The HAM-D was administered at baseline (Day 1, predose), Day 4, Day 8, Day 15, Day 21 and Day 28.
HAM-D Response was defined as a reduction from baseline of >50% in total HAM-D score. HAM-D remission was defined as a total HAM-D score of <7.

[2] = Multiple escalating dose study, plasma pharmacokinetics, Cohorts 1-3; format: in vivo, human
Procedure: Healthy subjects aged 18 to 55 years were treated with an oral suspension of Compound 1 to study the safety, tolerability, pharmacokinetics and pharmacodynamics of Compound 1 in healthy subjects.
The study was a randomized, double-blind, placebo-controlled multiple escalating dose study comprised of 3 cohorts that each received an oral suspension. Each cohort consisted of two groups: one group treated with Compound 1 and another treated with placebo. In each cohort, the ratio of Compound 1-treated subjects to placebo-treated subjects was 3:1.
The Compound 1-treated subjects of Cohort 1 were treated with 15.0 mg of Compound 1 once per day (QD). The Compound 1-treated subjects of Cohort 2 were treated with 30.0 mg of Compound 1 QD. The Compound 1-treated subjects of Cohort 3 were treated with 60.0 mg of Compound 1 QD.
Patients in each cohort were treated with Compound 1 for 14 consecutive days, unless dosing was halted by the Safety Review Committee (SRC). The dosing of subjects in each of the cohorts was staggered with the decision to dose escalate based on SRC review of a minimum of 14 days of observation of safety and tolerability data and review of the available plasma PK data from the preceding cohort(s). Thus, dose escalation was predicated on tolerability of the prior cohorts.
Compound 1 was administered under fasted conditions (no food or drink, except water, for at least 10 hours prior to dosing). Immediately after administration of Compound 1, the subject was be administered 240 mL water. No additional fluid intake was allowed until 1 hour after Compound 1 administration.
Cohort 1 subjects received a single 15.0 mg dose of a Compound 1 suspension on the morning of Days 1-14. Cohort 2 subjects received a single 30.0 mg dose of a Compound 1 suspension on the morning of Days 1-14. Cohort 3 subjects received a single 60.0 mg dose of a Compound 1 suspension on the morning of Days 1-14. For all cohorts, the last treatment was administered on the morning of Day 14.
Plasma samples were analyzed to determine Compound 1 concentrations using a validated assay method. Pharmacokinetic variables (including but not limited to Cmax, Tmax and AUC(0-last)) were calculated using non-compartmental analysis. PK parameters for Compound 1 were derived from the plasma concentration data using non-compartmental analysis with Phoenix™ WinNonlin® v 8.0 (Pharsight Corporation, USA).
Blood (Cohorts 1-3): For each cohort, blood samples were collected on Days 1, 2, 3, 4, 5, 6 and 14 at the following time points: Day 1 at pre-dose (0 hour), 0.25, 0.5, 0.75, 1, 1.5, 2, 2.5, 3, 4, 6, 8, 12, 16 h post-dose; Day 2 at pre-dose (24 h), Day 3 at pre-dose (48 h), Day 4 at pre-dose (72 h), Day 5 at pre-dose (96 h), Day 6 at pre-dose (120 h); Day 14 at pre-dose 0.25, 0.5, 0.75, 1, 1.5, 2, 2.5, 3, 4, 6, 8, 12, 16, 24, 36, 48, and 72 hours. Trough level blood samples were collected on Days 2, 3, 4, 5, 6 and 14, prior to the morning dose administrations.
Descriptive statistics were calculated for plasma and urine PK parameter and concentration data, and summarized by study day and time point. Arithmetic means, coefficient of variation (CV), standard deviation, median, minimum, and maximum values, and number of observations were calculated for all PK parameters and trough concentration data. Except for Tmax, the geometric mean, geometric standard deviation, and geometric CV were provided for all PK parameter and concentration data. […]

[3] = test system: women that are perimenopausal with depression; assay: Open label trial, Perimenopausal Depression Questionnaire (Meno-D); format: in vivo, human; conditions: one patient, 60 mg once a day
Description: The Meno-D is a perimenopausal depression rating scale consisting of 12 items, each items is scored on a 5-point scale (ranging from 0 to 4) (Kulkami J, et al., Development and validation of a new rating scale for perimenopausal depression-the Meno-D. Transl Psychiatry. 2018 Jun. 28; 8(1):123). The total score of the 12 items ranges from […] with higher scores indicating more severe perimenopausal depression. The MENO-D has five factors (or domains): Self (four items), Sexual (two items), Somatic (two items), Cognitive (two items) and Sleep (two items). MENO-D assesses the patient's self-esteem, sense of isolation, paranoid thinking, anxiety, interest in socialising, changes in libido and sexual activity, any decrease in energy, physical pain, changes in weight, subjective changes in memory and concentration, and increases in irritability and/or sleep disturbances.
as §1
(§2) Treatment Period: The treatment period was 14 days in duration. Participants were administered daily doses of Compound 1 (up to 120 mg qPM, including 15 mg once a day, 20 mg once a day, 25 mg once a day, 30 mg once a day, 35 mg once a day, 40 mg once a day, 45 mg once a day, 50 mg once a day, 55 mg once a day, 60 mg once a day, 65 mg once a day, 70 mg once a day, 75 mg once a day, 80 mg once a day, 85 mg once a day, 90 mg once a day, 95 mg once a day, 100 mg once a day, 105 mg once a day, 110 mg once a day, 115 mg once a day and 120 mg once a day) for 14 days.
(§3) Secondary outcome measure was by the Clinical Global Impression (CGI), DSM-V MDD Anxious Distress Specifier, the Hamilton Anxiety Rating Scale (HAM-A), the Montgomery-Asberg Depression Rating Scale (MADRS), the Perimenopausal Depression Questionnaire (Meno-D), the Pittsburgh Sleep Quality Index (PSQI), the revised Sabbastberg Sexual Function Scale, the Symptoms of Depression Questionnaire (SDQ), and a vasomotor symptom diary.

[4] = test system: women that are perimenopausal with depression; assay: Open label trial, vasomotor symptom diary (hot flushes); format: in vivo, human; conditions: one patient, 60 mg once a day, by Day 4 (baseline 9 per day)
Procedure: as §1, §2, §3

[5] = test system: women that are perimenopausal with depression; assay: Open label trial, safety/tolerability; format: in vivo, human; conditions: one patient, 60 mg dose once a day for 14 days
Procedure: During the study, physical examination, vital signs, ECG, and clinical laboratory tests were conducted. The Modified Observers Assessment of Anesthesia and Sedation, (MOASS) and the Columbia Suicide were performed.

[6] = human, in vivo, 30 mg
Procedure: (§4) The Day 1 dose was administered after a minimum of 10 hour fasting. No additional fluid intake was allowed until 1 hour after drug administration. A standard meal was given at least 4 hours post-dose. The Day 5 dose was administered following a high-fat, high calorie meal. Participants remained at the clinical site for a total of 8 days to complete PK sampling after the second dose.
(§5) Pharmacokinetic variables (including but not limited to Cmax, Tmax and AUC(0-last)) were calculated using non-compartmental analysis.

[7] = Food Effect Cohort (Cohort 4), plasma pharmacokinetics fasted vs fed; conditions: Cohort 4, single 30 mg
Procedure: as §4, §5

In the case of `CNCCC(Oc1ccc(C(F)(F)F)cc1)c1ccccc1` (stereo not drawn) [fluoxetine, reference compound], the “clinical response of depression symptoms (HAM-D score and clinical evaluation)” value ([1]; 15 mg daily taken for 8 months, before Compound 1) is reported as “had not demonstrated a sufficient clinical response”.

With `COC[C@@]1(O)CC[C@@]2(C)[C@@H](CC[C@@H]3[C@@H]2CC[C@]2(C)[C@@H](C(=O)Cn4ccnc4)CC[C@@H]32)C1` [Compound 1, 3α-Hydroxy-3β-methoxymethyl-21-(1′-imidazolyl)-5α-pregnan-20-one] the “accumulation factor of the dosing interval (ratio of AUCDay14/AUCDay1)” value ([2]; Cohort 1, 15.0 mg QD) was “approximately 1.25”, the AUCinf ([2]; Cohort 1, 15.0 mg QD, Day 14 steady state, Geo Mean) was 600.228 ng·h/mL and the “accumulation factor of the dosing interval (ratio of AUCDay14/AUCDay1)” value ([2]; Cohort 2, 30.0 mg QD) was “approximately 1.25”. For the same molecule, the AUC0-tau ([2]; human, in vivo, 15 mg) was 361.762 ng·h/mL, the Cmax ([2]; human, in vivo, 15 mg) was 56.016 ng/mL and the HAM-D score ([1]; 60 mg once a day for 14 days, Day 15 (baseline 28)) was 8. The “improvement in HAM-D score” value ([1]; 60 mg once a day for 14 days, adjunct to fluoxetine, Day 8) was 48%, the “improvement in HAM-D score from baseline value” ([1]; 60 mg once a day for 14 days, adjunct to fluoxetine, Day 15) was 71% and the “HAM-D Remission criterion (total HAM-D score of <7)” value ([1]; 60 mg once a day, Day 15) was “nearly met the HAM-D Remission criterion”. For the same molecule, the “HAM-D Response criterion (reduction from baseline of >50%)” value ([1]; 60 mg once a day, Day 15) was “met the HAM-D Response criterion”, the “improvement in MENO-D from baseline value” ([3]; Day 8 (baseline 28)) was 54% and the MENO-D classification ([3]; Day 8 and Day 15) was “no longer met classification for perimenopausal depression requiring clinical attention”. For the same molecule, the “improvement in MENO-D factor Cognitive” value ([3]; Day 15) was 100%, the “improvement in MENO-D factor Self” value ([3]; Day 15) was 63% and the “improvement in MENO-D factor Sexual” value ([3]; Day 15) was 43%. For the same molecule, the “improvement in MENO-D factor Sleep” value ([3]; Day 15) was 40%, the “improvement in MENO-D factor Somatic” value ([3]; Day 15) was 50% and the “improvement in MENO-D from baseline value” ([3]; Day 15 (baseline 28)) was 57%. The “decrease in frequency of hot flushes” value [4] was 66%, the adverse event reported [5] was “mild epigastric pain after dosing” and the tolerability [5] was “well-tolerated”. The “Tmax, fasting compared to fed conditions” value [6] was “tendency for a shorter Tmax” and the “t1/2, fasted versus fed” value [7] was “similar”.
